# Tested on: NRF2
# Assay: Western Blot validation of NRF2 nuclear accumulation and extra-nuclear protein phosphorylation
# Format: cell-based, human
# Method: 8. A Western Blot analysis was done on extra-nuclear and intra-nuclear fractions, separated by differential centrifugation, of serum starved HMVEC-L cell cultures exposed to <1% of a composition of the invention compared with a positive hydrogen peroxide control to determine phosphorylation events (oxidant action) in the extra-nuclear fraction and NRF2 (antioxidant transcription) in the intra-nuclear fraction at 0, 30, 60, 90 and 120 min intervals.
# HMVEC-L were treated with 1% of a composition of the invention, nuclear extracts were separated through centrifugal differentiation from the extra-nuclear cytosol at 30, 60 and 120 min and subjected to Western Blot analysis for NRF2. In the Western blot experiment the extra-nuclear fraction was probed for phosphorylated proteins using a combination of anti-phospho serine, threonine and tyrosine antibodies. Virtually all cellular processes are regulated by posttranslational modifications and protein phosphorylation is a prevalent mechanism. Observable changes in protein phosphorylation can lead to a mechanistic understanding of the cellular processes perturbed by compositions of the invention and provide a defined endpoint to better define dose-dependent regulation of cell function by compositions of the invention in vitro, as well as provide a potential candidate molecular marker that may be used to provide in vitro-in vivo correlates. […]
smiles,measurement,setting,value
"OO [H2O2, Hydrogen peroxide]",phosphorylation of extra-nuclear protein,"HMVEC-L extra-nuclear fraction, 1% composition, H2O2 positive control",marked increase in the phosphorylation
same,NRF2 levels in nuclear extracts,"HMVEC-L, 1% ASEA 30, 60, 120 min, H2O2 30 min",did not increase nuclear NRF2 levels

# Source: patent US20150093451A1, “METHOD OF INCREASING ENERGY EXPENDITURE” (Reoxcyn Discoveries Group, Inc., priority 2007, published 2015)
